# Test results from US20080274121A1, “Inhibition of Angiogenesis by Mithramycin” (priority 2007, published 2008).
# Tested on: Sp1, VEGF, EGFR and PDGFA expression
# Test: Expression of Sp1 and downstream molecules in H727 cells in vitro (Western/Northern blot)
# Assay type: cell-based, human
# Settings: 100 μg/ml BVZ, 5 days
# Procedure: FIG. 16. […] H727 cells were incubated in medium or medium containing 0.36 μM MIT for 24 hours. mRNA was extracted for Northern blot analysis of Sp1 expression (A1). H727 and BON-1 cells were incubated in medium or medium containing 0-0.36 μM MIT for 1 to 24 hours. […] B. Chromatin was prepared from the cells and ChIP assay was performed as described in Materials and Methods.
# FIG. 18. Effects of treatment with BVZ and MIT on the growth of and gene expression in human carcinoid cells in vitro. A. H727 and BON-1 cells were incubated for 5 days in a medium alone or a medium containing 25 to 100 μg/ml BVZ. The viable cells were counted. B. H727 cells were incubated for 5 days in a medium alone or a medium containing 100 μg/ml BVZ. Total protein lysates were harvested from the cell cultures, and the level of Sp1 and VEGF protein expression was determined using Western blot analysis. Equal protein-sample loading was monitored by probing the same membrane filter with an anti-GAPDH. C. […] Cytotoxicity was assessed using the MTT assay.
# Western blot analysis. […] Equal protein-sample loading was monitored by probing the same membrane filter with an antibody against glyceraldehyde-3-phosphate dehydrogenase (GAPDH) (21). The probe proteins were detected using the Amersham enhanced chemiluminescence system according to the manufacturer's instructions. […]
substance,measurement,value
bevacizumab [BVZ],expression of Sp1 and VEGF,"did not affect the expression of Sp1 or its major downstream molecule, VEGF"
